Results published in patent US9995734B2, “Human T cell line assay for evaluating the immunologic identity of glatiramer acetate preparations” (Mylan Inc., priority 2013, dated 2018).
Values joined by “and” are separate entries in the source; they are usually repeats but may differ in a detail not shown here. Equal values may be shown once.

Legend:
Donor 1 COP T-Cell Lines = assay: ATP proliferation assay (CellTiter Glo), Donor 1 COP T-cell lines, incl. reactivity to non-canonical GA peptides; type: cell-based, human; details: for luminescent ATP proliferation assay, mean / proliferation response to non-canonical GA peptides: Day 56; for luminescent ATP proliferation assay, mean: no antigen 5673 (Table 9); for Non-Canonical Peptide Non-Reactivity: proliferation <2 times no antigen control; for Nonreactive T-Cell Line / Reactive T-Cell Line: Donor 1 COP lines; for Nonreactive T-Cell Line: stimulation with the non-canonical GA peptide; for proliferation response to non-canonical GA peptides: 0, 3, 10, 30 μg/mL; for Reactive T-Cell Line: at least a 50% increase in proliferation relative to a control after stimulation with the non-canonical GA peptide
Protocol: (§1) Proliferation was evaluated by measuring ATP content using a luminescent method (CellTiter Glo Luminescent Cell Viability Assay, Promega, Madison, Wis., cat. #G7571) or by measuring BrdU uptake by ELISA (Millipore cat. #2752), in both cases following kit instructions. A split well format was used. Cells in each well were resuspended and 65 μl transferred to the wells of each of two new U-bottom 96-well plates, to generate the replicate plates. For the initial screening, the original 96-well plate received mitomycin-treated autologous PBMC as APC plus 10 μg/mL antigen (GA). A first replicate plate received 100 μl., mitomycin-treated PBMC alone (2×10^5), and no antigen, and a second replicate plate received 100 μL mitomycin-treated PBMC plus GA at a final concentration of 10 μg/mL. Therefore, all three plates received autologous APC (PBMC) treated with mitomycin C to prevent cell division. […] The latter two plates were incubated for 3 days at 37° C., 6% CO2 before adding CellTiter Glo or BrdU and measuring signal. IL-2 was added at 10 U/mL to the original 96-well plate for expansion on Day 17. For subsequent screenings, mitomycin-treated EBV-transformed autologous B-LCL (2×10^5 to 5×10^5 cells/mL) were used as APC.
COP-responsive T-cell lines were obtained from Donor 1. In the initial stimulation, isolated PBMC were plated at 1×10^5 cells per well (5×10^5 cells/mL) with 10 μg/mL Copaxone and cultured as described above. IL-2 was added to all wells on Days 4 and 7 of culture, and the wells screened for reactivity on Day 14 using a luminescent proliferation assay in split well format. The original plate was restimulated, and IL-2 added 4 days after restimulation.
(§2) T-cell line 222-2D8, generated from Donor 1 by initial stimulation with COP, was shown in at least two experiments to proliferate comparably following restimulation with GMA and COP. […] ATP levels were measured at 48 hours after stimulation. The control in the GMA series was no antigen, and the control in the COP series was MBP. The response to GMA in comparison to COP at the 10 μg/mL dose in this assay was 103.4%.
In a second ATP proliferation assay, carried out on Day 56 or culturing following stimulation with 1, 3, or 10 μg/mL of GMA or COP, the response to GMA in comparison to COP at the 10 μg/mL dose was 107.1%.
as §2, with “line 222-2F1,” for “line 222-2D8,”, “Donor 222” for “Donor 1”, “was 85.1%.” for “was 103.4%.”
On Day 56 of culturing, after six total rounds of stimulation, cell line 222-2F12 was assayed for proliferation in response to stimulation with GA and a series of non-canonical peptides. For the assay, 0, 3, 10, or 30 μg/mL of each of peptides GL 14, GLT 631, GAT 111, and GAT 631, COP, and GMA, were added to the T-cell lines at 1×10^5 cells/mL, in the presence of mitomycin C-treated autologous B-LCL. Proliferation was measured by luminescent ATP assay. Cell line 222-2F12 responded to GL 14 at 3 μg/mL, and not to the other non-canonical GA peptides tested. The response to GMA in comparison to COP at the 10 μg/mL dose in this assay was 99.4%.
The cultures were restimulated on days 46, 56, 67 and 75. On Day 56, cell lines 222-2D8, 222-1H12, 222-2F12, 222-2B8, 222-105, 222-2B11, and 222-2E1 again were tested for reactivity to stimulation with 1, 3, or 10 μg/mL of GMA or COP in a proliferation assay. ATP levels were measured in all seven cell lines at 48 hours (results in FIGS. 5A-G) after stimulation. The control in the GMA series was no antigen, and the control in the COP series was MBP. […]

[1] = tested on: Donor 1 GMA Expanded T-Cell Lines (222-AG11, 222-AG12, 222-BA11, 222-BC11); assay: ATP proliferation assay (CellTiter Glo), Donor 1 GMA expanded T-cell lines, incl. reactivity to non-canonical GA peptides; type: cell-based, human; details: for Non-Canonical Peptide Non-Reactivity: 222-AG12, proliferation <2 times no antigen control; for Nonreactive T-Cell Line: Donor 1 GMA expanded lines, stimulation with the non-canonical GA peptide; for Proliferation (luminescent ATP assay), Mean: T-cell line 222-AG12, autologous B-LCL
Protocol: as §1
On Day 24, cells from the wells corresponding to the eight presumptive GA-specific human T-cell lines listed in Table 4 were transferred to a 24-well plate and expanded by stimulating with 10 μg/mL GMA and mitomycin-treated autologous PBMC as APC (3×10^6 per well, i.e., 1.5×10^6/mL). On Day 32 four of the eight lines, 222-BA11, 222-BC11, 222-AG11, and 222-AG12, were stimulated with 0, 1, 10 and 100 μg/mL GMA and tested in a 96-well plate for a proliferative response to GMA using an ATP assay, again using autologous PBMC as APC (2×10^5 per well, i.e., 1×10^6/mL). […] FIGS. 2A and B show the results of the ATP proliferation assay carried out using 222-AG12, 222-BC11, 222-AG11, and 222-BA11 at Day 35 (control=no antigen). FIGS. 3A-C compare the results of ATP proliferation assays carried out after stimulation with varying concentrations of GMA or Copaxone as indicated, using cell lines 222-BA11, 222-BC11, and 222-AG12.
Donor 1 GMA T-cell line 222-AG12 was assayed for proliferation following stimulation with 0, 1, 10, and 30 μg/mL each of peptides GLT 631, GAT 631, GAT 111, LT 11, GT 11, GL 14, COP, and GMA, at a T-cell concentration of 2×10^5 cells/mL, in the presence of mitomycin C-treated autologous B-LCL. Line 222-AG12 was assayed after 3 rounds of restimulation (4 total stimulations). Proliferation was measured by luminescent ATP assay.

| Substance | luminescent ATP proliferation assay, mean (Donor 1 COP T-Cell Lines; 222-2F12, 3 μg/mL) | luminescent ATP proliferation assay, mean (Donor 1 COP T-Cell Lines; 222-2F12, 10 μg/mL) | luminescent ATP proliferation assay, mean (Donor 1 COP T-Cell Lines; 222-2F12, 30 μg/mL) | Non-Canonical Peptide Non-Reactivity (Donor 1 COP T-Cell Lines; 222-2F12) | Nonreactive T-Cell Line (Donor 1 COP T-Cell Lines) | Non-Canonical Peptide Non-Reactivity [1] | Nonreactive T-Cell Line [1] | Proliferation (luminescent ATP assay), Mean ([1]; 1 ug/mL antigen) | Proliferation (luminescent ATP assay), Mean ([1]; 10 ug/mL antigen) | Proliferation (luminescent ATP assay), Mean ([1]; 30 ug/mL antigen) | proliferation response to non-canonical GA peptides (Donor 1 COP T-Cell Lines; 222-1H12) | Reactive T-Cell Line (Donor 1 COP T-Cell Lines) | proliferation response to non-canonical GA peptides (Donor 1 COP T-Cell Lines; 222-2F12, GL 14 response at 3 μg/mL) | Non-Canonical Peptide Reactivity (Donor 1 COP T-Cell Lines; 222-2F12, at least one proliferation value >=2 times no antigen control) |
| --- | --- | --- | --- | --- | --- | --- | --- | --- | --- | --- | --- | --- | --- | --- |
| poly (Glu-Ala-Tyr; 1:1:1) [GAT 111] | 3914 | 3590 | 2430 | GAT 111 | 222-2F12 (Donor 1) and 222-1H12 (Donor 1) | GAT 111 | 222-AG12 (Donor 1) | 3391 RLU | 2568 RLU | 2245 RLU |  |  |  |  |
| poly (Glu-Ala-Tyr; 6:3:1) [GAT 631] | 4342 | 3226 | 3071 | GAT 631 | 222-2F12 (Donor 1) and 222-1H12 (Donor 1) | GAT 631 | 222-AG12 (Donor 1) | 3442 RLU | 3217 RLU | 3548 RLU |  |  |  |  |
| poly (Glu-Lys-Tyr; 6:3:1) [GLT 631] | 5277 | 4934 | 5217 | GLT 631 | 222-2F12 (Donor 1) | GLT 631 | 222-AG12 (Donor 1) | 3801 RLU | 4002 RLU | 5292 RLU | responded | 222-1H12 (Donor 1) |  |  |
| poly (Glu-Lys; 1:4) [GL 14] | 17007 | 331 | 203 |  | 222-1H12 (Donor 1) | GL 14 | 222-AG12 (Donor 1) | 3531 RLU | 55 RLU | 43 RLU |  | 222-2F12 (Donor 1) | responded | GL 14 |
